Laboratory results from PubChem BioAssay (NCI).
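These data come from cells grown in 96-well plates and exposed to compound for 48 hours at five concentrations. TGI: concentration producing complete growth inhibition.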

Key:
Assay in all cases: DTP human tumour cell line panel, 48 h
SR leukemia = system: SR leukemia
U251 CNS = system: U251 CNS
SF-539 CNS = system: SF-539 CNS
K-562 leukemia = system: K-562 leukemia
CAKI-1 renal = system: CAKI-1 renal
SK-MEL-28 melanoma = system: SK-MEL-28 melanoma
SNB-75 CNS = system: SNB-75 CNS
SK-MEL-2 melanoma = system: SK-MEL-2 melanoma
MDA-MB-231 breast = system: MDA-MB-231 breast
PC-3 prostate = system: PC-3 prostate
NCI-H522 lung = system: NCI-H522 lung
HOP-62 NSCLC = system: HOP-62 NSCLC
DU-145 prostate = system: DU-145 prostate
BT-549 breast = system: BT-549 breast
HCT-116 colon = system: HCT-116 colon
NCI-H226 lung = system: NCI-H226 lung
SK-MEL-5 melanoma = system: SK-MEL-5 melanoma
SF-268 CNS = system: SF-268 CNS
OVCAR-3 ovarian = system: OVCAR-3 ovarian
OVCAR-8 ovarian = system: OVCAR-8 ovarian
SF-295 CNS = system: SF-295 CNS
UACC-257 melanoma = system: UACC-257 melanoma
HCC-2998 colon = system: HCC-2998 colon
SW-620 colon = system: SW-620 colon
UACC-62 melanoma = system: UACC-62 melanoma
ACHN renal = system: ACHN renal
NCI-H23 lung = system: NCI-H23 lung
NCI/ADR-RES ovarian = system: NCI/ADR-RES ovarian
NCI-H460 lung = system: NCI-H460 lung
RXF 393 renal = system: RXF 393 renal
HT29 colon = system: HT29 colon
SNB-19 CNS = system: SNB-19 CNS
KM12 colon = system: KM12 colon
IGROV1 ovarian = system: IGROV1 ovarian
M14 melanoma = system: M14 melanoma
SK-OV-3 ovarian = system: SK-OV-3 ovarian
T-47D breast = system: T-47D breast
MDA-MB-435 = system: MDA-MB-435
A549 NSCLC = system: A549 NSCLC
TK-10 renal = system: TK-10 renal
A498 renal = system: A498 renal
UO-31 renal = system: UO-31 renal
786-0 renal = system: 786-0 renal
MDA-N = system: MDA-N
HOP-92 NSCLC = system: HOP-92 NSCLC
EKVX NSCLC = system: EKVX NSCLC
LOX IMVI melanoma = system: LOX IMVI melanoma
MOLT-4 leukemia = system: MOLT-4 leukemia
CCRF-CEM leukemia = system: CCRF-CEM leukemia
HCT-15 colon = system: HCT-15 colon
OVCAR-5 ovarian = system: OVCAR-5 ovarian
MCF7 breast = system: MCF7 breast
COLO 205 colon = system: COLO 205 colon
OVCAR-4 ovarian = system: OVCAR-4 ovarian
HS 578T breast = system: HS 578T breast
SN12C renal = system: SN12C renal
HL-60(TB) leukemia = system: HL-60(TB) leukemia
RPMI-8226 leukemia = system: RPMI-8226 leukemia
MALME-3M melanoma = system: MALME-3M melanoma

## CCC1CC2CN3CCc4c([nH]c5c(-c6c(OC)ccc7c8c([nH]c67)[C@]6(C(=O)OC)CC7CC(CC)C6N(CC8)C7)c(O)ccc45)[C@](C(=O)OC)(C2)C13 (stereo partly specified)
SR leukemia
  TGI: 45.4 µM
U251 CNS
  TGI: 25.7 µM
SF-539 CNS
  TGI: 39.7 µM
K-562 leukemia
  TGI: 27 µM
CAKI-1 renal
  TGI: 25.2 µM
SK-MEL-28 melanoma
  TGI: 29.9 µM
SNB-75 CNS
  TGI: 48.8 µM
SK-MEL-2 melanoma
  TGI: 47.2 µM
MDA-MB-231 breast
  TGI: 47.1 µM
PC-3 prostate
  TGI: 30.2 µM
NCI-H522 lung
  TGI: 31.6 µM
HOP-62 NSCLC
  TGI: 28.5 µM
DU-145 prostate
  TGI: 28.4 µM
BT-549 breast
  TGI: 33.7 µM
HCT-116 colon
  TGI: 25.7 µM
NCI-H226 lung
  TGI: 22 µM
SK-MEL-5 melanoma
  TGI: 27.4 µM
SF-268 CNS
  TGI: 32.9 µM
OVCAR-3 ovarian
  TGI: 30.9 µM
OVCAR-8 ovarian
  TGI: 49.7 µM
SF-295 CNS
  TGI: 36.1 µM
UACC-257 melanoma
  TGI: 47.2 µM
HCC-2998 colon
  TGI: 27.2 µM
SW-620 colon
  TGI: 25.6 µM
UACC-62 melanoma
  TGI: 29.6 µM
ACHN renal
  TGI: 64 µM
NCI-H23 lung
  TGI: 34.4 µM
NCI/ADR-RES ovarian
  TGI: 53.9 µM
NCI-H460 lung
  TGI: 29.2 µM
RXF 393 renal
  TGI: 26.8 µM
HT29 colon
  TGI: 18.6 µM
SNB-19 CNS
  TGI: 35.8 µM
KM12 colon
  TGI: 32.3 µM
IGROV1 ovarian
  TGI: 31.3 µM
M14 melanoma
  TGI: 78.2 µM
SK-OV-3 ovarian
  TGI: 68 µM
T-47D breast
  TGI: 23 µM
MDA-MB-435
  TGI: 23.6 µM
A549 NSCLC
  TGI: 36.9 µM
TK-10 renal
  TGI: 33.4 µM
A498 renal
  TGI: 28.7 µM
UO-31 renal
  TGI: 27.1 µM
786-0 renal
  TGI: 28 µM
MDA-N
  TGI: 24.6 µM
HOP-92 NSCLC
  TGI: 26.6 µM
EKVX NSCLC
  TGI: 39.7 µM
LOX IMVI melanoma
  TGI: 28 µM
MOLT-4 leukemia
  TGI: 16.7 µM
CCRF-CEM leukemia
  TGI: > 100 µM
HCT-15 colon
  TGI: 31.4 µM
OVCAR-5 ovarian
  TGI: 33.2 µM
MCF7 breast
  TGI: 22.9 µM
COLO 205 colon
  TGI: 24.7 µM

## N#Cc1c(-c2ccccc2)/c(=C\O)c(=O)n2c1nc1ccccc12
SR leukemia
  TGI: > 100 µM
OVCAR-4 ovarian
  TGI: > 100 µM
U251 CNS
  TGI: > 100 µM
SF-539 CNS
  TGI: > 100 µM
HS 578T breast
  TGI: 91.8 µM
K-562 leukemia
  TGI: > 100 µM
CAKI-1 renal
  TGI: > 100 µM
SK-MEL-28 melanoma
  TGI: > 100 µM
SNB-75 CNS
  TGI: 91.9 µM
SK-MEL-2 melanoma
  TGI: > 100 µM
MDA-MB-231 breast
  TGI: > 100 µM
PC-3 prostate
  TGI: > 100 µM
NCI-H522 lung
  TGI: > 100 µM
DU-145 prostate
  TGI: > 100 µM
BT-549 breast
  TGI: > 100 µM
HCT-116 colon
  TGI: > 100 µM
NCI-H226 lung
  TGI: > 100 µM
SK-MEL-5 melanoma
  TGI: > 100 µM
SF-268 CNS
  TGI: > 100 µM
OVCAR-8 ovarian
  TGI: > 100 µM
SF-295 CNS
  TGI: > 100 µM
UACC-257 melanoma
  TGI: > 100 µM
SW-620 colon
  TGI: > 100 µM
UACC-62 melanoma
  TGI: > 100 µM
ACHN renal
  TGI: > 100 µM
NCI-H23 lung
  TGI: > 100 µM
NCI/ADR-RES ovarian
  TGI: > 100 µM
NCI-H460 lung
  TGI: > 100 µM
RXF 393 renal
  TGI: > 100 µM
HT29 colon
  TGI: > 100 µM
SNB-19 CNS
  TGI: > 100 µM
KM12 colon
  TGI: > 100 µM
SN12C renal
  TGI: > 100 µM
IGROV1 ovarian
  TGI: > 100 µM
HL-60(TB) leukemia
  TGI: > 100 µM
M14 melanoma
  TGI: > 100 µM
SK-OV-3 ovarian
  TGI: > 100 µM
T-47D breast
  TGI: > 100 µM
MDA-MB-435
  TGI: > 100 µM
A549 NSCLC
  TGI: > 100 µM
TK-10 renal
  TGI: > 100 µM
A498 renal
  TGI: > 100 µM
UO-31 renal
  TGI: > 100 µM
786-0 renal
  TGI: > 100 µM
MDA-N
  TGI: > 100 µM
RPMI-8226 leukemia
  TGI: > 100 µM
EKVX NSCLC
  TGI: > 100 µM
MOLT-4 leukemia
  TGI: > 100 µM
CCRF-CEM leukemia
  TGI: > 100 µM
HCT-15 colon
  TGI: > 100 µM
MALME-3M melanoma
  TGI: > 100 µM
OVCAR-5 ovarian
  TGI: > 100 µM
COLO 205 colon
  TGI: > 100 µM
